Data taken from patent US8415501B2, “Methods and compositions for making and using polymorphs of cinacalcet” (Amgen, Inc., priority 2006, dated 2013).

Assays:
[1] = target: cytochrome P450 2D6 (Homo sapiens, UniProt P10635); conditions: cited from earlier work
[2] = system: patients with parathyroid carcinoma; conditions: cited from earlier work
[3] = solid-form stability of cinacalcet HCl polymorphs
Excerpt: The present invention describes an additional third form of the compound. […] The present invention is directed to a novel polymorph Form III.

Sequence of cytochrome P450 2D6 (P10635 whole entry): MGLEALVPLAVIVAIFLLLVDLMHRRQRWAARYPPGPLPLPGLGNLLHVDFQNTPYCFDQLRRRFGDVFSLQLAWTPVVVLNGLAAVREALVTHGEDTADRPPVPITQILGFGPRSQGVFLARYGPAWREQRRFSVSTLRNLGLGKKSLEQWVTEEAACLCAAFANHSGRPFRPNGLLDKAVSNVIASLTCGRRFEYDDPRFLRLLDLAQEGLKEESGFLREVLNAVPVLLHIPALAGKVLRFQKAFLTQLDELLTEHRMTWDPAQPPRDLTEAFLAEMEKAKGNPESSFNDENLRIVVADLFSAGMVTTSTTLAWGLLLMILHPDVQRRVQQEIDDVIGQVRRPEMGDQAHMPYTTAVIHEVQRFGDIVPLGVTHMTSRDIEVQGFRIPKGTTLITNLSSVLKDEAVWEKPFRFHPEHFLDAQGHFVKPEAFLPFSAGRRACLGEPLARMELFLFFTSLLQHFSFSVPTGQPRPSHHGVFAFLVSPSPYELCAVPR

C[C@@H](NCCCc1cccc(C(F)(F)F)c1)c1cccc2ccccc12.Cl [Sensipar®, N-[1-(R)-(−)-(1-naphthyl)ethyl]-3-[3-(trifluoromethyl)phenyl]-1-aminopropane hydrochloride]
metabolizing enzyme [1]: metabolized by cytochrome P450 2D6 | effect on calcium levels [2]: reduce high levels of calcium

C[C@@H](NCCCc1cccc(C(F)(F)F)c1)c1cccc2ccccc12.Cl [Form III, N-[1-(R)-(−)-(1-naphthyl)ethyl]-3-[3-(trifluoromethyl)phenyl]-1-aminopropane hydrochloride]
thermodynamic stability of the crystalline form ([3]; solvent systems and crystallization methods, XRPD analysis): metastable form

C[C@@H](NCCCc1cccc(C(F)(F)F)c1)c1cccc2ccccc12.Cl [Form II]
stability of the crystalline form ([3]; room temperature): unstable at room temperature
